Tested on: human prolyl 4-hydroxylase
Assay: Expression of human prolyl 4-hydroxylase by Western blotting in oligonucleotide-treated HCT116 cells
Type: cell-based
Settings: HCT116, 10 μM once per day for seven days
Method: The cell line used for testing is the human colon cancer cell line HCT116. Cells are cultured in RPMI-1640 with 10-15% fetal calf serum at a concentration of 10,000 cells per milliliter in a volume of 0.5 ml and kept at 37° C. in a 95% air/5% CO2 atmosphere.
Phosphorothioate oligoribonucleotides are synthesized on an Applied Biosystems Model 380B DNA synthesizer using phosphoroamidite chemistry. A sequence of 24 bases complementary to the nucleotides at position 1 to 24 of SEQ ID NO:1 or SEQ ID NO:3 is used as the test oligonucleotide. As a control, another (random) sequence is used: 5′-TCAACTGACTAGATGTACATGGAC-3′ (SEQ ID NO:11). Following assembly and deprotection, oligonucleotides are ethanol-precipitated twice, dried, and suspended in phosphate buffered saline at the desired concentration. Purity of the oligonucleotides is tested by capillary gel electrophoresis and ion exchange HPLC. The purified oligonucleotides are added to the culture medium at a concentration of 10 μM once per day for seven days.
This effect is not observed with the control oligonucleotide. After 3 to 7 days, the number of cells in the cultures is counted using an automatic cell counter. The number of cells in cultures treated with the test oligonucleotide (expressed as 100%) is compared with the number of cells in cultures treated with the control oligonucleotide.

**Q.** For “5′-TCAACTGACTAGATGTACATGGAC-3′ (TCAACTGACTAGATGTACATGGAC; listed as DNA, chemistry not given here) [control oligonucleotide]”, which “expression of human prolyl 4-hydroxylase as determined by Western blotting” value is on record?
**A.** not observed
